Molecular target: T1, PaPabC (Pseudomonas aeruginosa, UniProt Q9HZN6)
T1 construct: gene pabC; full length (271 residues), N-terminal His6 tag with TEV site kept (not cleaved), modified pET15b, E. coli BL21(DE3) Gold; homodimer, about 50 kDa
T1 sequence (Q9HZN6 1-271): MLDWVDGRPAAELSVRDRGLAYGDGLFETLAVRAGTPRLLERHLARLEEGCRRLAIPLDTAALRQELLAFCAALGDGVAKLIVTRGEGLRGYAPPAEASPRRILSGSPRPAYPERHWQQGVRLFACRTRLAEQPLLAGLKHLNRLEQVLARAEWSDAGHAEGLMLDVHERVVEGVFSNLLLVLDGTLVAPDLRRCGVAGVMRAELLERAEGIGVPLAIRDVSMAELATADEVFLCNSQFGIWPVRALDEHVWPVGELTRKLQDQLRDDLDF
Test: X-ray crystal structure ([…] Å), omit map
Assay type: binding
Conditions: covalent, Schiff base with Lys140; Tyr92 of partner subunit contacts PLP O3; crystallised with 0.1 mM PLP and 10 mM PABA, pH 6.5

Compound: Cc1ncc(COP(=O)(O)O)c(C=O)c1O [PLP]
- X-ray crystal structure (1.75 Å), omit map: The presence of the PLP cofactor covalently bound to Lys140 was confirmed

Source: article PMC3174152, “Pseudomonas aeruginosa 4-Amino-4-Deoxychorismate Lyase: Spatial Conservation of an Active Site Tyrosine and Classification of Two Types of Enzyme” (PLoS ONE, 2011)
